Publication PMC5751305, “In Silico Screening and In Vitro Activity Measurement of Javamide Analogues as Potential p38 MAPK Inhibitors” (International Journal of Molecular Sciences, 2017)
Values belong to the molecule of their own block, whether it stands above or below them.

Tests used:
Assay type in all cases: biochemical
p38 α [1] = biological target: T1, p38 α (Homo sapiens, UniProt Q16539); experiment: ADP-Glo kinase assay (Promega CMGC-1 kinase selectivity profiling system)
T1 construct: gene MAPK14

p38 α [2] = biological target: T1, p38 α; experiment: ADP-Glo kinase assay (Promega CMGC-1), % inhibition at […]
p38 α [3] = biological target: T1, p38 α; experiment: ADP-Glo kinase assay (Promega CMGC-1 kinase selectivity profiling system), dose response […]

T1 sequence (Q16539 2-360): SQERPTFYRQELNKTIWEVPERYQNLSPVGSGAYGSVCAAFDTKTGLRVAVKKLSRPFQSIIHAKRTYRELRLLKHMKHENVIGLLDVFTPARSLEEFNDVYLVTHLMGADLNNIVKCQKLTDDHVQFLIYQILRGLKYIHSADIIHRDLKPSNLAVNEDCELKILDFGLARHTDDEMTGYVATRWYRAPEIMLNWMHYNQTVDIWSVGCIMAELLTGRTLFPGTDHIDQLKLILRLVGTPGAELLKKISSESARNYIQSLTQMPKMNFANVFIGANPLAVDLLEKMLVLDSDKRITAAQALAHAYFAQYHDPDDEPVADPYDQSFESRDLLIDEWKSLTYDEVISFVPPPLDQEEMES

IC50 (p38 α [1]): 12 µM
Structure (SMILES): COC(=O)[C@H](Cc1c[nH]c2ccccc12)NC(=O)/C=C/c1ccc(O)c(O)c1 [Javamide-II-methyl, Methyl (E)-(3-(3,4-dihydroxyphenyl)acryloyl) tryptophanate]

inhibition at 5 µM (p38 α [2]): 31.5%
Structure (SMILES): O=C(/C=C/c1ccc(O)c(O)c1)N[C@@H](Cc1c[nH]c2ccccc12)C(=O)O [Javamide-II, javamide-II]

IC50 (p38 α [3]): 9.9 µM
Structure (SMILES): CCOC(=O)[C@H](Cc1c[nH]c2ccccc12)NC(=O)/C=C/c1ccc(O)c(O)c1 [Javamide-II-ethyl, javamide-II-O-ethyl ester]
